Experimental data: US20020019374A1, “Salicylohydrazide derivatives, processes and intermediates for their preparation, compositions comprising them, and their use” (priority 2000, published 2002)

C/C(=N\NC(=O)c1cccc([N+](=O)[O-])c1O)c1ccccc1 [I-1, 3-nitrosalicylic (1-phenylethylidene)hydrazide]
melting point: 163 to 168 °C
